From ChEMBL document CHEMBL4330101, “Identification of BR101549 as a lead candidate of non-TZD PPARγ agonist for the treatment of type 2 diabetes: Proof-of-concept evaluation and SAR” (Bioorg Med Chem Lett, 2019) come the findings set out here.

The target in series [1] is T1, Peroxisome proliferator-activated receptor gamma (Homo sapiens, UniProt P37231).
T1 sequence (P37231 whole entry): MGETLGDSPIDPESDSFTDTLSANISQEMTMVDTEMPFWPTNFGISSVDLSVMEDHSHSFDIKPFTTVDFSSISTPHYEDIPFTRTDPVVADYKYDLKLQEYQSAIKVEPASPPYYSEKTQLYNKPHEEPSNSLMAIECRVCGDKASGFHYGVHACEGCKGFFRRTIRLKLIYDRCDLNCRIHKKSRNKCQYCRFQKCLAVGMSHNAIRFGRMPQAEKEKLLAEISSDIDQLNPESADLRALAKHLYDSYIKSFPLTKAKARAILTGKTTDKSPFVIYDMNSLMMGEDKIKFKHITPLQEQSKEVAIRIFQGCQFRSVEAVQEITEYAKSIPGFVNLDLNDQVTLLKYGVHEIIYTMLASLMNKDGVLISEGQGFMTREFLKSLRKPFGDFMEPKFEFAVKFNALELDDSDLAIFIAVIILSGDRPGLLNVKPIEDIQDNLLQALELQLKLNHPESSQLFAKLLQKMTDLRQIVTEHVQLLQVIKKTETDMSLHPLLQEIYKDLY
The series can be described thus: Agonist activity at human PPARgamma.

Series [2] has as its target T2, Peroxisome proliferator-activated receptor gamma (Homo sapiens) (UniProt P37231).
T2 sequence (whole entry): T1 sequence (P37231 whole entry)
The series can be described thus: Agonist activity at human PPARgamma at 1 uM relative to pioglitazone.

Series [3] in a line: Stability in mouse liver microsomes assessed as parent compound remaining after 30 mins. Type of series: ADME, Microsome. As to conditions: read-out: Stability. In general terms: Microsomes from liver hold many membrane-bound enzymes, among them those of drug oxidation.
The nature of series [4]: Stability in human liver microsomes assessed as parent compound remaining after 30 mins. Format: ADME, Microsome. The note with it: read-out: Stability.
A short description of series [5]: Stability in rat liver microsomes assessed as parent compound remaining after 30 mins. Format: ADME, Microsome. As to conditions: read-out: Stability.
The nature of series [6]: Stability in dog liver microsomes assessed as parent compound remaining after 30 mins. Format: ADME, Canis lupus familiaris, Microsome. The note with it: read-out: Stability.
Series [7] has as its target T2, Peroxisome proliferator-activated receptor gamma (Homo sapiens). The series can be described thus: Agonist activity at human PPARgamma at 1 uM relative to telmisartan.
Series [8] is described as follows: Drug metabolism in mouse liver S9 fraction assessed as acylglucuronide formation. Type of series: ADME, subcellular.
Series [9] in a line: Drug metabolism in rat liver S9 fraction assessed as acylglucuronide formation. Type of series: ADME, subcellular.
Series [10] is described as follows: Drug metabolism in human liver S9 fraction assessed as acylglucuronide formation. Format: ADME, subcellular.
The next series relates to Mus musculus. Put plainly: Antidiabetic activity in db/db mouse assessed as random blood glucose level at 20 mg/kg, po administered once daily for 13 days measured post last dose (reference value: 530 mg/dl). Type of series: functional.
Series [11] is described as follows: Toxicity in db/db mouse assessed as body weight at 20 mg/kg, po administered once daily for 13 days (reference value: 33.5 g). Format: organism-based. The note with it: in vivo, 312 h.
The target of series [12] is T3, Type-1 angiotensin II receptor (Homo sapiens, UniProt P30556).
T3 sequence (P30556 whole entry): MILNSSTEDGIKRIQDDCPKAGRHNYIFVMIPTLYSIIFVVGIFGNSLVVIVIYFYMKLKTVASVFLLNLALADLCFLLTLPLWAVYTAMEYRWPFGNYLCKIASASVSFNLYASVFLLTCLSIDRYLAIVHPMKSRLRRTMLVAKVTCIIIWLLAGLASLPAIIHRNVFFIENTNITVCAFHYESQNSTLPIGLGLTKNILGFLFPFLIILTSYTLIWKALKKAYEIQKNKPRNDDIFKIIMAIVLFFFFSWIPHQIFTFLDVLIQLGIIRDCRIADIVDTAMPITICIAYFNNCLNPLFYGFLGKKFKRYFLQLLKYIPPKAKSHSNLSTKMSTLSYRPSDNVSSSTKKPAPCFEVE
Put plainly: Antagonist activity at type-1 angiotensin 2 receptor (unknown origin) by calcium mobilizing assay. Format: functional.

Turning to `CCCCc1nc(C2CC2)c(CC(=O)OC)c(=O)n1Cc1ccc(-c2ccccc2-c2noc(=O)[nH]2)cc1`, in series [1], a half-maximal response (EC50) required 2.36 µM. In series [2], this compound showed a max activation of 83%. Further, the values for the remaining at 0.5 h in series [3] and in [4] were 16.4% and 24.4%, respectively.
Consider `CCCCc1nc(C(C)C)c(C(C)C(=O)OCC)c(=O)n1Cc1ccc(-c2ccccc2-c2noc(=O)[nH]2)cc1` (stereo not given), for which the remaining at 0.5 h in series [3] is 28%; in [5] it was 19.2%; in series [6], 43.8%; in [4] it was 11%. In series [7], the fold change (FC) was found to be 1.3.
Regarding `CCCCc1nc(C(C)C)c(CC(=O)OCC(F)(F)F)c(=O)n1Cc1ccc(-c2ccccc2-c2noc(=O)[nH]2)cc1`, the response in series [1] was half-maximal at 2.78 µM (EC50). Further, the max activation in series [2] was determined as 65%.
Consider `CCCCc1nc(C)c(CC(=O)OC2CC2)c(=O)n1Cc1ccc(-c2ccccc2-c2noc(=O)[nH]2)cc1`, for which the concentration giving a half-maximal response (EC50) (usually the midpoint of the concentration-response curve) in series [1] amounted to 3.31 µM. Moreover, the max activation in series [2] came to 62%. The figures for the remaining at 0.5 h in series [3] and in series [4] were 12.8% and 34.5%, respectively.
The like results for `CCCCc1nc(C)c(CC(=O)OC)c(=O)n1Cc1ccc(-c2ccccc2-c2noc(=O)[nH]2)cc1` were, in that order, 7.36 µM, 74%, 47.1% and 69.6%.
On the same counts, the results for `CCCCc1nc(C)c(CC(=O)OC(C)C)c(=O)n1Cc1ccc(-c2ccccc2-c2noc(=O)[nH]2)cc1` are 1.66 µM, 114%, 4% and 17.5%.
For the compound `[2H]C([2H])(C(=O)OCC)c1c(C)nc(CCCC)n(Cc2ccc(-c3ccccc3-c3noc(=O)[nH]3)cc2)c1=O`, the remaining at 0.5 h worked out at 78.4% in series [3], 87.3% in [5], 86.8% in series [6] and 46.5% in [4].
Consider `CCCCc1nc(C(C)(C)C)c(CC(=O)OCC)c(=O)n1Cc1ccc(-c2ccccc2-c2noc(=O)[nH]2)cc1`, for which the remaining at 0.5 h stood at 14% in series [3] and 8.2% in series [4]. Moreover, the fold change (FC) in series [7] was less than 1.
For the compound `CCCCc1nc(C(C)C)c(CC(=O)OC(CC)CC)c(=O)n1Cc1ccc(-c2ccccc2-c2noc(=O)[nH]2)cc1`, the remaining at 0.5 h in series [3] amounted to 14.6%; in series [4] it was 7.7%.
As to `CCCCc1nc(C)c(CC(=O)OCC)c(=O)n1Cc1ccc(-c2ccccc2-c2noc(=O)[nH]2)cc1`, the remaining at 0.5 h in series [3] worked out at 12.9%; in series [5], 14.3%; in series [6] it was 50.9%; in series [4], 46.6%. For the same compound, the fold change (FC) was found to be 0.93 in series [7] and 0.82 in series [7] (tested as the 2H-labelled form).
Take `CCCCc1nc(C)c(CC(=O)OCC2CCCCC2)c(=O)n1Cc1ccc(-c2ccccc2-c2noc(=O)[nH]2)cc1`: in [1], the EC50 was determined as 1.32 µM. For the same compound, the max activation in series [2] amounted to 90%. Also, the remaining at 0.5 h in series [3] stood at 8.9%; in [4], 11.5%.
On to `CCCCc1nc(C(C)C)c(CC(=O)OCCC)c(=O)n1Cc1ccc(-c2ccccc2-c2noc(=O)[nH]2)cc1`, for which the EC50 in series [1] amounted to 1.5 µM. In addition, in [2], the max activation worked out at 133%. Also, the figures for the remaining at 0.5 h in [3] and in series [4] were 12.6% and 7.2%, respectively.
In turn, `CCCCc1nc(C(C)C)c(CC(=O)O)c(=O)n1Cc1ccc(-c2ccccc2-c2noc(=O)[nH]2)cc1` showed an EC50 in series [1] of 10.3 µM. For the same compound, the max activation in series [2] is 2%. In addition, the remaining at 0.5 h was determined as 100% in series [3] and 86.8% in [4]. Moreover, the Drug metabolism entry in series [8], in series [9] and in series [10] was “Metabolite_Detected” in each case.
In the case of `CCCCc1nc(C(C)C)c(CC(=O)OCC(C)C)c(=O)n1Cc1ccc(-c2ccccc2-c2noc(=O)[nH]2)cc1`, in series [1], the EC50 worked out at 1.23 µM. Moreover, the max activation in series [2] came out at 128%. The remaining at 0.5 h in series [3] was 13.7%; in [4] it was 8.8%.
On the same counts, the results for `CC#CCOC(=O)Cc1c(C(C)C)nc(CCCC)n(Cc2ccc(-c3ccccc3-c3noc(=O)[nH]3)cc2)c1=O` are 1.06 µM, 103%, 16.4% and 13.7%.
As for `CCc1ccc(CCOc2ccc(CC3SC(=O)NC3=O)cc2)nc1` (stereo not given) [PIOGLITAZONE], the Activity in the series with Mus musculus turned out to be 213 mg/dL; in [11], 32.3 g.
Consider `CC#CCOC(=O)Cc1c(C)nc(CCCC)n(Cc2ccc(-c3ccccc3-c3noc(=O)[nH]3)cc2)c1=O`, for which, in series [1], the EC50 was 2.53 µM. For the same compound, the max activation in [2] was 99%. Further, the figures for the remaining at 0.5 h in series [3] and in series [4] were 18.3% and 32%, respectively.
The like results for `CCCCc1nc(C2CC2)c(CC(=O)OC(C)C)c(=O)n1Cc1ccc(-c2ccccc2-c2noc(=O)[nH]2)cc1` were, in that order, 2.72 µM, 87%, 14% and 9.9%.
With `CCCCc1nc(C(C)C)c(CC(=S)N2CCCC2)c(=O)n1Cc1ccc(-c2ccccc2-c2noc(=O)[nH]2)cc1`, in series [12], the IC50 (usually the midpoint of a concentration-inhibition curve) worked out at 0.0022 µM. Further, in series [1], a half-maximal effect (EC50) was put at 3.1 µM. For the same compound, in series [2], the max activation was determined as 66%.
As for `CCCCc1nc(C)c(CC(=O)OC2CCCCC2)c(=O)n1Cc1ccc(-c2ccccc2-c2noc(=O)[nH]2)cc1`, the EC50 in series [1] stood at 1 µM. The compound also gave a max activation in series [2] of 98%. The figures for the remaining at 0.5 h in series [3] and in [4] were 10.7% and 3.9%, respectively.
`CCCCc1nc(C(C)C)c(CC(=O)OC2CC2)c(=O)n1Cc1ccc(-c2ccccc2-c2noc(=O)[nH]2)cc1` yielded an EC50 in series [1] of 1.36 µM. The compound also returned a max activation in series [2] of 89%. The remaining at 0.5 h in series [3] amounted to 11.4%; in series [4], 10.3%.
On the same counts, the results for `CCCCc1nc(C)c(CC(=O)OCC2CC2)c(=O)n1Cc1ccc(-c2ccccc2-c2noc(=O)[nH]2)cc1` are 1.81 µM, 101%, 13% and 20%.
`CCCCc1nc(C(C)C)c(CC(=O)OC)c(=O)n1Cc1ccc(-c2ccccc2-c2noc(=O)[nH]2)cc1` displayed a concentration for a half-maximal effect (EC50) in series [1] of 2.62 µM. The max activation in series [2] amounted to 96%. Moreover, the remaining at 0.5 h turned out to be 9.4% in series [3] and 10.5% in series [4].
As to `CCCCCOC(=O)Cc1c(C(C)C)nc(CCCC)n(Cc2ccc(-c3ccccc3-c3noc(=O)[nH]3)cc2)c1=O`, in series [1], the EC50 came to 1.09 µM. For the same compound, the max activation in series [2] was 54%. For the same compound, the remaining at 0.5 h in [3] came out at 19.7%; in [4], 10.6%.
The like results for `CCCCc1nc(C)c(CC(=O)OCC(C)C)c(=O)n1Cc1ccc(-c2ccccc2-c2noc(=O)[nH]2)cc1` were, in that order, 1.53 µM, 114%, 7.7% and 2.4%.
The like results for `CCCCOC(=O)Cc1c(C(C)C)nc(CCCC)n(Cc2ccc(-c3ccccc3-c3noc(=O)[nH]3)cc2)c1=O` were, in that order, 1 µM, 73%, 21.6% and 7.1%.
In turn, `CCCCOC(=O)Cc1c(C)nc(CCCC)n(Cc2ccc(-c3ccccc3-c3noc(=O)[nH]3)cc2)c1=O` had an EC50 in series [1] of 2.25 µM. This compound registered a max activation in series [2] of 116%. Further, the remaining at 0.5 h in [3] is 10.2%; in series [4], 2.8%.
Turning to `CCCCc1nc(C(C)C)c(CC(=O)OC2CCCCC2)c(=O)n1Cc1ccc(-c2ccccc2-c2noc(=O)[nH]2)cc1`, the concentration for a half-maximal effect (EC50) in series [1] was found to be 0.73 µM. Besides, in [2], the max activation was 88%. Besides, the remaining at 0.5 h in series [3] turned out to be 14.6%; in [4] it was 13.3%.
